Measurements as given in patent publication US20240360091A1, “GLUN2B-SUBUNIT SELECTIVE ANTAGONISTS OF THE N-METHYL-D-ASPARTATE RECEPTORS WITH ENHANCED POTENCY AT ACIDIC PH” (Emory University, priority 2021, published 2024).
Where two headings read alike, the source gives them in different places.

Key:
GluN2D = GluN2D (Homo sapiens (Human), UniProt O15399); test: Two electrode voltage-clamp recordings, single concentration, GluN2D; type: cell-based; details: pH 6.9
CYP2D6 = CYP2D6 (Homo sapiens (Human), UniProt P10635); test: Cytochrome P450 inhibition (Vivid CYP blue screening kit), CYP2D6; type: in vitro ADME; details: 1 μM
Sequence of CYP2D6 (P10635 whole entry, canonical isoform): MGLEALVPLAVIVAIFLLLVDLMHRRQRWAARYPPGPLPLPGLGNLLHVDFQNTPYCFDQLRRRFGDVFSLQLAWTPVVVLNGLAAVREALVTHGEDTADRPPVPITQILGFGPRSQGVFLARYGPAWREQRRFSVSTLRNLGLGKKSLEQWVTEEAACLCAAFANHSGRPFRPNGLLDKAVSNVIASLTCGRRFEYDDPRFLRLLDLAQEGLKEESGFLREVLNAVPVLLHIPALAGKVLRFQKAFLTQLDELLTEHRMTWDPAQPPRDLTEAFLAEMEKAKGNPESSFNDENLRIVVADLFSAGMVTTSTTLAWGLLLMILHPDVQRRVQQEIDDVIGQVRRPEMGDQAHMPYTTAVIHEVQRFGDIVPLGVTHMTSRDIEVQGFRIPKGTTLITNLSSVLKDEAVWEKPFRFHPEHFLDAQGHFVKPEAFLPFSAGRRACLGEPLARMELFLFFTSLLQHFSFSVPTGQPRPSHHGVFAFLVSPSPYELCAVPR
Protocol: Inhibition of CYP2D6 and CYP3A4 was accomplished using recombinant human isoforms and a Vivid CYP blue screening kit (Invitrogen, USA) by incubating 2-fold serial dilutions (9 samples) of the test compound with kit reagents and reaction buffer according to the manufacturer's methods in a 96-well plate. The plate was then incubated at room temperature for 30 min before fluorescence was measured with a plate reader. For these studies, reference standards ketoconazole (CYP3A4) and quinidine (CYP2D6) were used as controls.

5-HT1B = 5-HT1B (Homo sapiens (Human), UniProt P28222); test: Off-target radioligand binding displacement (NIMH PDSP); details: pH 7.4
Sequence of 5-HT1B (P28222 whole entry, species assumed): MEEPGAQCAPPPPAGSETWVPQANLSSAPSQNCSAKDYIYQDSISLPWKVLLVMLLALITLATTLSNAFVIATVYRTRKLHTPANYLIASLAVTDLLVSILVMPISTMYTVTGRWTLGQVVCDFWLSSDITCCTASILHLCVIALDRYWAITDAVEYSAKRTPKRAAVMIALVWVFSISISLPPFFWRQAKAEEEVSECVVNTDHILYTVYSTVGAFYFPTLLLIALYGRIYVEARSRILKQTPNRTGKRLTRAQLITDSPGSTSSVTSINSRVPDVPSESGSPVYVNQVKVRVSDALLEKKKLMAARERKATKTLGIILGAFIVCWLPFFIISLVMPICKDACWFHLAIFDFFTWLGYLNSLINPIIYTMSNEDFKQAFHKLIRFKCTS
Protocol: (§1) Briefly, the compound was submitted to the NIMH PDSP and screened at a single concentration (10 μM) of test article under equilibrium conditions for ability to displace specific radioligands from binding to their targets expressed in mammalian cell membranes in vitro. Each receptor target was assayed in quadruplicate and the % inhibition of radioligand binding at each target determined at pH 7.4. […]

5-HT2A = 5-HT2A (Homo sapiens (Human), UniProt P28223); test: as above; details: pH 7.4
Sequence of 5-HT2A (P28223 whole entry): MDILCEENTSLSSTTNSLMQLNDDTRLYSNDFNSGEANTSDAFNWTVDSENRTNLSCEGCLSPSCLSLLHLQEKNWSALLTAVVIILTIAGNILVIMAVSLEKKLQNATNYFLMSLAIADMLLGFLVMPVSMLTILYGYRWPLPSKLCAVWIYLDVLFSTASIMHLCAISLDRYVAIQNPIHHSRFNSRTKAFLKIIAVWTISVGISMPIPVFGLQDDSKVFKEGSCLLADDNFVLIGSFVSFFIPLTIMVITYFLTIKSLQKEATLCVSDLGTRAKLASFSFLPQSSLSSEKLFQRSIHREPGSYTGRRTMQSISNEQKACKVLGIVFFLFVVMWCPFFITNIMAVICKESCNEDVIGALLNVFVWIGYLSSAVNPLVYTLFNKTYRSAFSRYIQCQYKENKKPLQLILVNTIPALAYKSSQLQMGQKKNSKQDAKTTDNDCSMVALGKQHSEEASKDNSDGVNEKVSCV
Protocol: as §1

SERT = SERT (Homo sapiens (Human), UniProt P31645); test: as above; details: pH 7.4
Sequence of SERT (P31645 whole entry, species assumed): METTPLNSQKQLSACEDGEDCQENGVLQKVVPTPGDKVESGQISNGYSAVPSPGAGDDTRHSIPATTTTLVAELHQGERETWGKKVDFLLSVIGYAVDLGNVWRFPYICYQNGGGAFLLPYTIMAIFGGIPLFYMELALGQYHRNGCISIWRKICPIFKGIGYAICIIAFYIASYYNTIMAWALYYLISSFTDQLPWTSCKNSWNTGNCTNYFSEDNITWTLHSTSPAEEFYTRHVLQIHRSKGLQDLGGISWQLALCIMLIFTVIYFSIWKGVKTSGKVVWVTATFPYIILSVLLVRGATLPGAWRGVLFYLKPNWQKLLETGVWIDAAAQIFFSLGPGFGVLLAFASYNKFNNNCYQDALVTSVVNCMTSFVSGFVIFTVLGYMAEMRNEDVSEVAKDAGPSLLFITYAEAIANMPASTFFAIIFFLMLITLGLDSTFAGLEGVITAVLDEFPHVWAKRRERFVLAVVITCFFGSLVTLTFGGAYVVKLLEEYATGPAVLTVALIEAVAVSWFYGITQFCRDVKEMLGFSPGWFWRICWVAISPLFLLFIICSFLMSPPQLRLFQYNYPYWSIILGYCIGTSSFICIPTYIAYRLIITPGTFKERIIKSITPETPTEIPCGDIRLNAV
Protocol: as §1

hERG potassium channel = hERG potassium channel (Homo sapiens (Human), UniProt Q12809); test: hERG potassium channel current, automatic patch clamp in HEK cells; type: cell-based; details: pH 7.4, patch clamp; read-out: Functional IC50 (μM) hERG
Sequence of hERG potassium channel (Q12809 whole entry): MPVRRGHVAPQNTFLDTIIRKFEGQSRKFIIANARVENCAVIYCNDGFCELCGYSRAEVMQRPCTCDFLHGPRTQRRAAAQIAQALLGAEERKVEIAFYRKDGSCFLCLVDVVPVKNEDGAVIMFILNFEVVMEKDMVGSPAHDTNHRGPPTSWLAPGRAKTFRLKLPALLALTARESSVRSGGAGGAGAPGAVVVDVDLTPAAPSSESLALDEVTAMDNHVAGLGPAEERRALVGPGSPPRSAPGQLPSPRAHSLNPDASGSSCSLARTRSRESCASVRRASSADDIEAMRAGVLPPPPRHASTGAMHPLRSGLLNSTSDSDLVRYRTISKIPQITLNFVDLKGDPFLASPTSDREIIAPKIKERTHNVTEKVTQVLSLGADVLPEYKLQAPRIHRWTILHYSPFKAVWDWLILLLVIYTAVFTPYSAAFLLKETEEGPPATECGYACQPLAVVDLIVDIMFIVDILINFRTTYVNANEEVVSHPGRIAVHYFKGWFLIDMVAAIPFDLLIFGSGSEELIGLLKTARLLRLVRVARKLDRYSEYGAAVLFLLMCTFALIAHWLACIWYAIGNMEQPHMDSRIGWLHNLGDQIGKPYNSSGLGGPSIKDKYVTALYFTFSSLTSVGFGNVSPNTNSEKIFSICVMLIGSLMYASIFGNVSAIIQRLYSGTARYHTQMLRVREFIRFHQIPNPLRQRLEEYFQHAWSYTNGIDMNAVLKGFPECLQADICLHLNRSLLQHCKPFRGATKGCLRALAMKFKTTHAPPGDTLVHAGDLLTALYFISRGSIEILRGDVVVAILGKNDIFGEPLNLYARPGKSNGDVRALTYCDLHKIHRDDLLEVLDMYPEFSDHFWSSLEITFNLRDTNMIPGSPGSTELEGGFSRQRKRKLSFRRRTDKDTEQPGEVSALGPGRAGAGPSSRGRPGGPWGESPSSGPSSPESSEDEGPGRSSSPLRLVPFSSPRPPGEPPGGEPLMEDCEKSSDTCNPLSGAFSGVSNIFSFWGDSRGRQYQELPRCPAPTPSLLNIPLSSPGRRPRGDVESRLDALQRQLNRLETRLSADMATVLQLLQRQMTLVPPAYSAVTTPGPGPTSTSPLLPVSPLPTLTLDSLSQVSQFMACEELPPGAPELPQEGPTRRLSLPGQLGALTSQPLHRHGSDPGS
Protocol: Each test concentration was tested in two or more cells (n≥2). Duration of exposure to each test article concentration was 3 minutes. A positive control (0.5 μM […]) was used to confirm the sensitivity of the cells to an hERG inhibitor.

[1] = test system: MCAO model of transient ischemia in mice; test: In vivo model of transient focal ischemia, middle cerebral artery occlusion (MCAO); design: species or system mouse; details: for infarct volume: 24 hours post reperfusion
Protocol: All protocols involving animals were approved by the Georgia State University IACUC, an AAALAC accredited program, and was under the supervision of a licensed veterinarian. Mice were group housed, provided nestlets and shelters with access to food pellets and water ad libitum under a 12-hour light/dark cycle. Mice were brought to a separate room and housed for at least 30 min prior to initiation of the surgery.
Mice (C57B16, >90 days old, Jackson Labs) were subjected to transient (60 min) middle cerebral artery occlusion (MCAO) and the infarct volume measured 24 hours post reperfusion, similar as previously described (Yuan, et al., Neuron, 2015, 85(6):1305-1318). Male mice were used for this experiment to reduce potential confound by progesterone variation through estrous cycles, which can have neuroprotective actions. Briefly, transient ischemia was induced in anesthetized (2% isoflurane/98% O2) mice by insertion of an intraluminal suture into the MCA for 60 minutes (Junge, et al., Proc NatlAcad Sci USA, 2003, 100: 13019-13024). The body temperature of each mouse was monitored with a rectal thermometer and maintained at 37° C. through use of a homeothermic blanket. Changes in local cerebral blood flow were monitored with a laser Doppler flowmeter probe (Perimed) secured via glue to the skull 4-6 mm lateral and 2 mm posterior of bregma. An 11-mm 5-0 Dermalon or Look (SP185) black nylon non-absorbable suture with the tip flame-rounded was introduced into the left internal carotid artery through the external carotid artery stump up to 10.5-11 mm of suture insertion. Only mice with a reduction in blood flow to <20% for 60 min and with recovery of blood flow to >90% following removal of the suture were progressed to complete the study. Following the occlusion period, mice were placed back in their cages on a warming blanket (37° C.) for several hours and monitored for righting reflex and ability to ambulate upon a gentle touch. At 24 hours post occlusion, mice were euthanized by isoflurane overdose, the brain quickly removed and cut into 2 mm sections and incubated in 2% 2,3,5-triphenyltetrazolium chloride (TTC) in phosphate buffered saline (pH 7.4) at 37° C. for 20 min, then placed at 4° C. for imaging. The infarct area was then measured using the NIH IMAGE software (Scion Corporation, Beta 4.0.2 release). The lesioned area of each section was determined by digital threshold reductions in TTC staining to ≤20% lower intensity than that observed in the contralateral cortex. The infarct region was then manually outlined with a curser and the cubic volume of the infarct determined for each slice, then summed across all four slices from each animal to obtain total infarct volume. […]

[2] = Pharmacokinetics in the brain compartment compared to plasma in mice; type: in vivo; details: BALB/c, mouse; for Cmax at 1 h: iv
Protocol: Formulation for pharmacokinetic studies used 2% or 10% N′,N′-dimethylacetamide, 10% propylene glycol, and 30% 2-hydroxypropyl-beta-cyclodextrin in water and a dose volume of 10 mL/kg (all routes of administration).
Here, brain samples were first washed in deionized water to remove blood, the weight recorded, then transferred into fresh 1 mL water, homogenized, and stored at −80° C. until analysis. The ratio of compound in brain (g) compared to blood (mL) was then calculated.

clinical = details: human, plasma, intravenous
Protocol: Subjects checked into the clinic on Day 1 and remained in the clinic through the 48 h post-dose blood draw on Day 7, after which time they were discharged. Subjects returned to the clinic for a follow-up visit at Day 9. […] Dose levels included 25, 50 and 100 mg.
Collection tubes containing K2EDTA were be used to collect 5 mL of whole blood sample at each time point. Immediately after collection, tubes were inverted to mix the anticoagulant with the blood sample. Tubes were then centrifuged at a speed of approximately 3000 g force for 10 minutes at 4° C. Within 5 minutes of centrifugation the plasma fraction was transferred into two equal aliquots (1.25 mL each) into 2 mL cryovials and then frozen and stored at −70° C.
The method was adapted and used to measure plasma samples by TMD Pharmaceutical Research (Newark, DE). […] Analytes were detected by multiple reaction monitoring using an MDS Sciex API 4000 mass spectrometer (AB Sciex, Framingham, MA) in positive mode.
The pharmacokinetic analysis was performed based on the non-compartmental analysis approach (M. Garibaldi and D Perrier, Pharmacokinetics 2nd Edition, Chapter 11, Marcel Dekker Inc., New York, 1982) using MS Excel®.

Sequence of GluN2D (O15399 28-1336, other chains not shown): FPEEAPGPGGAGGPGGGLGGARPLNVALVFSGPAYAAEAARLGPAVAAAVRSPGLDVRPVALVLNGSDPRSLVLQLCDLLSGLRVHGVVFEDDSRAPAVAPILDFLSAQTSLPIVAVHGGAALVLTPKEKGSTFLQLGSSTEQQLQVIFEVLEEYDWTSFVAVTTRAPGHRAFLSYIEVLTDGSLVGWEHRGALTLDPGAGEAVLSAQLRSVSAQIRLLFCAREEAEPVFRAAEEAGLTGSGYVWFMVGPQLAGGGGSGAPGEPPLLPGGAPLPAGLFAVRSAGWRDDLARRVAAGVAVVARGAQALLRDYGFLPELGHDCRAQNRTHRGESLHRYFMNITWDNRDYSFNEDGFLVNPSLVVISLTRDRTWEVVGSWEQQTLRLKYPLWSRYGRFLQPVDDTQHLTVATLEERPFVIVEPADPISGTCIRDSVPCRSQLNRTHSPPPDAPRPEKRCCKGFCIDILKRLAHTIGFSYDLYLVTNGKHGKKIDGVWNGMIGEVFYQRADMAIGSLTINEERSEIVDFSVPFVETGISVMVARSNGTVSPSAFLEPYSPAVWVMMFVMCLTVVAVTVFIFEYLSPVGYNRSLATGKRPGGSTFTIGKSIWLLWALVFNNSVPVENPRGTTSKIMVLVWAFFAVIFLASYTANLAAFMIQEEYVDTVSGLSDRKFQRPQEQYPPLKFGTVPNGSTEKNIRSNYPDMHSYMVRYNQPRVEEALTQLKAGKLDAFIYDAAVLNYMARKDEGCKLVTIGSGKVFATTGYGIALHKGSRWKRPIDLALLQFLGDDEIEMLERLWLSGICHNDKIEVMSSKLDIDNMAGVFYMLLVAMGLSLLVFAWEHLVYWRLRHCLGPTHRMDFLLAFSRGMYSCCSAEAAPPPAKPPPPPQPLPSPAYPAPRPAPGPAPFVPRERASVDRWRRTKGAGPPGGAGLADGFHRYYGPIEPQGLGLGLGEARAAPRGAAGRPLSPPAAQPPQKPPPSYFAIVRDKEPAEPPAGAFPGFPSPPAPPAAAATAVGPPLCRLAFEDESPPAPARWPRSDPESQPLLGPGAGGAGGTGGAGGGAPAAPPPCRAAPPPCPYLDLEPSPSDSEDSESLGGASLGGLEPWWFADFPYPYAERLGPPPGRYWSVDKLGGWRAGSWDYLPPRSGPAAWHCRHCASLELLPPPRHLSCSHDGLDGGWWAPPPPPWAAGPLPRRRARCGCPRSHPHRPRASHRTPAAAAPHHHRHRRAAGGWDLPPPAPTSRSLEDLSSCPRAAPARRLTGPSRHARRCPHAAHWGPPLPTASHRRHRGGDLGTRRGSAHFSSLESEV

- off-target inhibition against GluN2D (GluN2D; 3 μM): no noticeable off-target inhibition
- GluN2D % residual (GluN2D; % current remaining after 3 μM compound): 98.3 (pH 6.9) %
- inhibition of CYP2D6 (CYP2D6): did not inhibit
- Ki (5-HT1B): > 10 µM
- Ki (5-HT2A): 0.638 µM
- Ki (SERT): 0.135 µM
- concentration at 1 h ([2]; brain, intraperitoneal, 5 mg/kg, 5 mg/kg IP, 1 hour post dosing, read-out: estimated free drug concentration in the brain): 60 to 134 nM
- concentration at 2 h ([2]; brain, intraperitoneal, 5 mg/kg, 5 mg/kg IP, 2 hours post dosing, read-out: estimated free drug concentration in the brain): 51 to 103 nM
- concentration at 4 h ([2]; brain, intraperitoneal, 5 mg/kg, 5 mg/kg IP, 4 hours post dosing, read-out: estimated free drug concentration in the brain): 33 to 66 nM
- concentration at 8 h ([2]; brain, intraperitoneal, 5 mg/kg, 5 mg/kg IP, 8 hours post dosing, read-out: estimated free drug concentration in the brain): 28 to 56 nM
- concentration at 1 h ([2]; brain, intravenous, 3 mg/kg, 3 mg/kg IV, Study 1, 1 hour, read-out: Brain Conc.): 1740 ng/g
- concentration at 1 h ([2]; brain, intravenous, 3 mg/kg, 3 mg/kg IV, Study 2A (2% DMA formulation), 1 hour, read-out: Brain Conc.): 1420 ng/g
- concentration at 1 h ([2]; brain, intravenous, 3 mg/kg, 3 mg/kg IV, Study 2B, 1 hour, read-out: Brain Conc.): 2100 ng/g
- Cmax at 1 h ([2]; plasma, 3 mg/kg, 3 mg/kg IV, Study 1, 1 hour): 2300 ng/mL
- Cmax at 1 h ([2]; plasma, 3 mg/kg, 3 mg/kg IV, Study 2A (2% DMA formulation), 1 hour): 600 ng/mL
- Cmax at 1 h ([2]; plasma, 3 mg/kg, 3 mg/kg IV, Study 2B, 1 hour): 817 ng/mL
- Tmax ([2]; plasma, 3 mg/kg IV, Study 1): 1 h
- Cmax (clinical; 25 mg): 213 ± 26 ng/mL
- Tmax (clinical; 25 mg): 0.5 h
- half-life (clinical; 25 mg): 15.4 to 36.2 h
- Cmax (clinical; 50 mg): 394 ± 72 ng/mL
- Tmax (clinical; 50 mg): 1 ± 0.4 h
- half-life (clinical; 50 mg): 15.5 to 25.6 h
- half-life (clinical; 100 mg): 12.5 to 34 h
SMILES: O=C1CCc2cc(OC[C@H](O)CN3CCN(c4ccc(C(F)(F)F)cc4)CC3)ccc2N1 [NP10679]
- IC50 (hERG potassium channel): 0.617 µM
- infarct volume ([1]; 5 mg/kg IP): 56±6.6 mm^3
- infarct volume ([1]; 10 mg/kg IP): 49±3.0 mm^3
- maximum infarct volume reduction ([1]; IP dose prior to 60 min MCAO): 52%
- ED50 ([1]; Mus musculus, 1 h, IP dose prior to 60 min MCAO, read-out: ED50 for infarct volume reduction): 1 mg/kg
